# What was measured:
# Type in all cases: physicochemical
# [1] = Ligand protonation constants by pH-potentiometric titration; details: T = 25 °C, I = 0.15 M NaCl
# Description: The protonation constants of H2OPC2A have been determined by pH-potentiometry in 0.15 M NaCl ionic medium, and the constants determined are listed in Table 2, along with the corresponding values determined for structurally similar ligands used as comparative benchmarks (H23,9-PC2A, H23,6-PC2A, H21,4-DO2A, H21,7-DO2A, and H21,7-O2DO2A).
# (§1) Metal stock solutions were prepared from the highest analytical grade chemicals, and their concentrations were determined by complexometric titration with standardized Na2H2EDTA and eriochrome black T indicator in the presence of ascorbic acid, and potassium hydrogen tartrate for MnCl2, murexide indicator for CaCl2 and CuCl2, eriochrome black T for MgCl2 and xylenol orange in the presence of hexamethylenetetramine for the solution of ZnCl2. The concentration of the ligand stock solution was determined by pH-potentiometric titrations. The protonation constants of the ligand were determined by the pH potentiometric titrations with 0.15 M NaOH, using 0.0025 M ligand solutions. The ionic strength was set to 0.15 M by using NaCl. […]
# (§2) To avoid the effect of CO2, N2 gas was bubbled through the solutions during the titrations process. […] For the calibration of the pH meter, KH-phtalate (pH = 4.005) and borax (pH = 9.177) buffers were used, and the H^+ ion concentrations were calculated from the measured pH values by applying the method proposed by Irving et al.. […]
# [2] = Stability and protonation constants of Mg(II) complexes by pH-potentiometry; details: Mg^2+ complex; T = 25 °C, I = 0.15 M NaCl
# Description: The stability and protonation constants of the metal complexes formed with H2OPC2A were determined by pH-potentiometric titrations, but, for the Cu(II) complex, UV-Vis spectrophotometric measurements were also carried out to supplement the pH-potentiometric titration data (Figures S21 and S22, Supporting Information).
# as §1, §2
# [3] = Metal exchange (transmetalation) with Zn(II) followed by T2 relaxometry
# From the text: The kinetic inertness of the complexes considered for in vivo applications is an important parameter. It can be characterized by using various approaches. One of the possibilities is to study the rates of dissociation of the complexes, by following the transmetalation reactions occurring between the complex and the large excess (applied to ensure pseudo-first-order conditions) of a suitable exchanging metal ions (essential metal ions, such as Zn(II) or Cu(II) are often used for this purpose). The rates of dissociation reactions are explored as a function of pH (in a wide pH range) as well as in a wide metal ion concentration range, in order to obtain information about the contribution of various mechanisms (spontaneous, acid-, or metal-assisted dissociation). […] Results obtained for different complexes under the same conditions can be compared, and the order of relative inertness can be accessed rapidly. Finally, in the field of nuclear medicine, the “serum stability” is often determined, which, in fact, reflects dissociation in the blood serum (i.e., the dissociation initiated by the serum components). Upon the dissociation of the complex, the Mn(II) reacts with the serum components (HSA for instance), which results in a considerable relaxivity enhancement caused by the formation of Mn(II) species with a longer rotational correlation time (a remarkable increase in molecular mass). Therefore, ^1H relaxometry is an easily accessible tool for following the transmetalation/transchelation reactions of paramagnetic complexes occurring in blood serum.
# Metal exchange reactions occurring with Zn(II) at pH = 6.0: first, we evaluated the rate of the metal exchange reaction occurring with Zn(II) under the conditions proposed by P. Caravan and coworkers, in order to have an idea of how the replacement of the secondary amine group for an etheric oxygen in the rim of the pyclen macrocycle affects the inertness of its corresponding Mn(II) complex. The plot of the 1/T2 values as a function of time for the [Mn(3,9-OPC2A)] and [Mn(3,9-PC2A)] complexes are shown in Figure S26 (Supporting Information). Fitting the measured data for the [Mn(3,9-OPC2A)] by the monoexponential function gives the rate constant kobs = (1.74 ± 0.04) × 10^−5 s^−1.
# The inertness of the [Mn(3,9-OPC2A)] complex was studied by various methods. The transmetalation reaction initiated by the Zn(II) ions was monitored by measuring the T2 relaxation times as a function of time at pH = 6.0, set by a 50 mM 2-(N-morpholino)ethanesulfonic acid (MES) buffer in the presence of 25 equivalents of Zn(II) ions at 37 °C. These conditions were recently used by P. Caravan et al., and employed in the present study to obtain data that can be directly compared with that of [Mn(PyC3A)]^– [6].
# [4] = pH = 6.0, 25 equivalents of Zn(II), 37 °C
log K3^H [1],Σlog Κ2^H ([1]; log K1^H + log K2^H),log KMgL (stability constant of the Mg(II) complex) [2],"half-life of dissociation at pH = 7.4 ([3]; pH = 7.4, large Zn(II) excess, from the rate constant) [h]",Compound,"kobs ([3]; pH = 6.0 (50 mM MES), 25 equivalents of Zn(II), 37 °C)","kobs lower than that of [Mn(PyC3A)] [3, 4] [times]","kobs smaller than that of [Mn(3,9-PC2A)] [3, 4]"
2.13(1),15.39,7.02(1),,"O=C(O)CN1CCOCCN(CC(=O)O)Cc2cccc(n2)C1 [H23,9-OPC2A, 6-Oxa-3,9,15-triazabicyclo(9.3.1)pentadeca-1(15),11,13-triene-3,9-diacetic acid]",,,
,,,40.0,"O=C([O-])CN1CCOCCN(CC(=O)[O-])Cc2cccc(n2)C1.[Mn+2] [[Mn(3,9-OPC2A)]]",(1.74 ± 0.04) × 10^−5 s^−1,~40,circa 20 times

# Reference: article PMC8778187, “A New Oxygen Containing Pyclen-Type Ligand as a Manganese(II) Binder for MRI and ^52Mn PET Applications: Equilibrium, Kinetic, Relaxometric, Structural and Radiochemical Studies” (Molecules, 2022)
